Read-outs that look alike come from different tables or passages of the source.
What was measured:
[1] = test system: A2780 cells; assay: Quantification of sub-diploid cells by flow cytometry; conditions: A2780, 96 hours, single agents: TAK-733 50 nM or 200 nM, MLN8237 20 nM (50 nM MLN8237 sample was the exception), FIG. 2A
Protocol: Sub-diploid cells were gated as those with a lower level of propidium iodide fluorescence than cells with 2N DNA content.
(§1) A2780, A375, PC-3 and SK-MEL-2 cells were seeded at 2×10^4 cells/ml and grown on 6 well cell culture dishes overnight at 37° C. with 5% CO2. […] At the relevant time points cells were harvested with trypsin ethylenediaminetetraacetic acid (EDTA) 1× (Gibco/Invitrogen [Carlsbad, Calif., USA]), washed once with phosphate-buffered saline (PBS), fixed in 70% ethanol and stored at −20° C. for at least 24 hours. The cells were washed once more in PBS, then resuspended in 50 μg/ml propidium iodide (Invitrogen, [Carlsbad, Calif., USA]) and 30 μg/ml ribonuclease (RNAse) A (Sigma [St Louis, Mo., USA]) in PBS and incubated for 30 minutes at room temperature protected from light. Cell cycle distributions were determined by measuring deoxyribonucleic acid (DNA) content using flow cytometry on a FACS Canto II flow cytometer (Becton Dickinson [San Jose, Calif., USA]) and samples were analyzed using [sequence] software (Becton Dickinson [San Jose, Calif., USA]).

[2] = test system: PC3; assay: Cells with greater than 4N DNA by flow cytometry, PC3
Protocol: as §1

[3] = test system: Panc-1 Human Pancreatic Carcinoma Xenografts; assay: Antitumor activity in female nude mice bearing Panc-1 xenografts; conditions: MLN8237 30 mg/kg QD for 21 days (oral per title; b268 prints SC); Day 63; p<0.001 vs vehicle
Protocol: Experimental Design: Low passage (passage TC08) Panc-1 cells (ATCC, Manassas, Va., USA) were grown in Roswell Park Memorial Institute (RPMI)-1640 (ATCC, Manassas, Va., USA) 10% Fetal Bovine Serum (PAA Laboratories PTY LTD, Morningside, QLD, Australia) and supplied at a concentration of 5.0×10^7 cells/mLl in Dulbecco's phosphate-buffered saline (DPBS) (Invitrogen-Gibco, Grand Island, N.Y., USA). Cells were mixed 1:1 with Matrigel support (BD Biosciences, Bedford, Mass., USA) and 5.0×10^6 Panc-1 cells/animal (0.2 mL injection volume) were implanted SC into the right flank of female Balb/c nude mice.
Tumor growth was monitored twice weekly using calipers and the mean tumor volume was calculated using the formula (0.5×[length×width^2]). […] Tumor size and body weight were measured twice weekly and the study was terminated on Day 63 when tumors in the control group reached approximately 1127.8 mm^3. Tumor volumes and BW of animals in the combination treatment group were monitored up to Day 111.
Antitumor activity was determined by calculating the percent TGI ([mean tumor volume of the control group—mean tumor volume of a treated group]/mean tumor volume of the control group) on Day 63. Treatment started on Day 1 and lasted through Day 21. Maximum percent BWL was evaluated during the treatment period (Day 1-Day 21). […]

[4] = test system: A2780; assay: BrdU proliferation assay, A2780; conditions: Homo sapiens, A2780, 96 h
Protocol: (§2) A2780, A375, PC-3, and SK-MeI-2 human tumor cell lines were seeded at 2.0×10^3, 1.0×10^3, 4.0×10^3 and 2.0×10^3 cells per well, respectively, in 80 μL of the appropriate cell culture growth media. Plating densities were chosen to ensure optimal linear growth over 120 hours. After 20 hours, 10 μL of each compound was added to the cells in a matrix with dose responses of both agents. […] Each matrix was generated in triplicate with each replicate on a separate plate.
(§3) Cell proliferation of each cell line was measured using the cell proliferation enzyme-linked immunosorbent assay (ELISA), 5-bromo-2-deoxyuridine (BrdU) colorimetric kit according to the manufacturer's instructions (Roche [Mannheim, Germany]). The assay measures cell proliferation by quantifying BrdU incorporation into replicating deoxyribonucleic acid (DNA). Briefly, each well was incubated with 10 μL of BrdU labeling reagent for 2 hours at 37° C. in a humidified cell culture chamber. After aspiration of the labeling media, the plates were wrapped in foil and kept at 4° C. to assay at a future time. The cells were fixed and denatured by adding 100 µL of ethanol to each well and incubated for 30 minutes at room temperature. The ethanol was aspirated and 50 μl of blocking reagent (Roche [Mannheim, Germany]) was added to the cells and incubated for 30 minutes. 100 μL of peroxidase-conjugated anti BrdU antibody ([anti-BrdU-POD]; 1:100 in antibody dilution buffer) was added to the cells. The cells were incubated with the antibody for 120 minutes at room temperature. The cells were then washed 2× with 150 μL of wash buffer per well and 100 μL of tetramethyl benzidine was then added. The cells were incubated for 15 to 30 minutes at room temperature prior to spectrophotometric analysis. A SpectraMax Plus 384 plate reader (Molecular Devices [Sunny Vale Calif., USA]) or WALLAC 1420 Workstation (Perkin Elmer [Turku, Finland]) were used to measure the absorbance of each well at 395 or 405 nm, respectively, depending on the machine used. The A2780 and A375 cell lines were measured using the SpectraMax Plus at 395 nm, while the PC-3 and SK-Mel-2 cell lines were measured using the WALLAC 1420 Workstation at 405 nm. Analysis of the data was performed using GraphPad Prism 5.0.

[5] = test system: A375; assay: BrdU proliferation assay, A375; conditions: Homo sapiens, A-375, 96 h
Protocol: as §2, §3

[6] = test system: A375; assay: Cells with greater than 4N DNA by flow cytometry, A375
Protocol: as §1

[7] = test system: PC-3; assay: BrdU proliferation assay, PC-3; conditions: Homo sapiens, PC-3, 96 h
Protocol: as §2, §3

[8] = test system: NCI-H23 Non Small Cell Lung Carcinoma Xenografts; assay: Anti-tumor activity in female nude mice bearing NCI-H23 xenografts; conditions: for TGI: Day 99; for TFS (tumor-free survivors): Day 135, n=8
Protocol: MLN8237 was prepared in 10% hydroxypropyl-beta-cyclodextrin (HP-β-CD) (Sigma, St. Louis, Mo., USA)+1% NaHCO3 (Sigma, St. Louis, Mo., USA) every 5 days and stored at approximately 25° C. in the dark.
5.0×10^6 NCI-H23 cells/animal (0.1 ml injection volume) were implanted SC into the right flank of Balb/c nude mice.
Experimental Design: 7-9 week old female Balb/c nude mice were inoculated subcutaneously in the flank (cell suspension) with 5.0×10^6 NCI-H23 cells. Tumor growth was monitored with vernier calipers. The mean tumor volume was calculated using the formula V=W^2×L/2. When the mean tumor volume (MTV) reached approximately 105 mm^3, the animals were randomized into 8 treatment groups (n=8/group). […] Tumor growth and body weight were measured twice per week. Tumor growth inhibition and body weight change were calculated on Day 99 of treatment.
Antitumor activity was determined by calculating the percent TGI ([mean tumor volume of the control group−mean tumor volume of a treated group]/mean tumor volume of the control group) on Day 99. Treatment started on Day 1 for 21 days. […] The use of Day 99 allows us to evaluate tumor response and statistically compare the ΔAUC for each group over the regrowth period.
Additional endpoints used to evaluate efficacy were: complete and partial tumor response CR and PR), and the number of tumor-free survivors (TFS) at the end of the study.
Statistical Analysis: Statistical analysis was performed with a linear mixed effects regression model. This model takes into account the differences in trends of tumor growth between control and treated samples. Differences among mice were treated as random effects, and a compound symmetry covariance structure was used to model the variability between repeated tumor measurements on each mouse. Treatment comparisons were performed by using the fitted curves from the model to calculate the changes in the areas under the tumor volume-versus-time curves (ΔAUCs). The significance of the ΔAUC was assessed using permutation testing. P-values <0.05 were considered significant.
The change in AUC relative to the control was calculated for both single agent treatment groups as well as the combination group.

[9] = test system: SKMEL-2; assay: BrdU proliferation assay, SKMEL-2; conditions: Homo sapiens, SK-MEL-2, 96 h
Protocol: as §2, §3

[10] = test system: A2780; assay: Cells with greater than 4N DNA by flow cytometry, A2780
Protocol: as §1

[11] = test system: SKMEL-2; assay: Cells with greater than 4N DNA by flow cytometry, SKMEL-2
Protocol: as §1

[12] = MLN8237 30 mg/kg PO for 21 days, mice of 8

In the case of `COc1cc(Nc2ncc3c(n2)-c2ccc(Cl)cc2C(c2c(F)cccc2OC)=NC3)ccc1C(=O)[O-].O.[Na+]` [MLN8237], the “percentage of sub-diploid cells relative to DMSO” value [1] is reported as “neither TAK-733 nor MLN8237 caused appreciable increases”, the “Percentage of cells with greater than 4N DNA” value (from here on “Percentage of cells”) ([2]; PC3, 24 Hr, DMSO 10.5) is reported as 21% and the “Percentage of cells” value ([2]; PC3, 48 Hr, DMSO 10.7) is reported as 30.5%. For the same compound, the TGI [3] was −6.4%, the IC50 ([4]; read-out: MLN8237 IC50, A2780, TAK-733 0.0 nM) was 43 nM and the IC50 ([4]; read-out: MLN8237 IC50, A2780, TAK-733 0.64 nM) was 34 nM. For the same compound, the IC50 ([4]; read-out: MLN8237 IC50, A2780, TAK-733 3.2 nM) was 29 nM, the IC50 ([4]; read-out: MLN8237 IC50, A2780, TAK-733 16 nM) was 19 nM and the IC50 ([4]; read-out: MLN8237 IC50, A2780, TAK-733 80 nM) was 11 nM. The IC90 ([4]; read-out: MLN8237 IC90, A2780, TAK-733 0.0 nM) was over 5000 nM, the IC90 ([4]; read-out: MLN8237 IC90, A2780, TAK-733 0.64 nM) was over 5000 nM and the IC90 ([4]; read-out: MLN8237 IC90, A2780, TAK-733 3.2 nM) was 288 nM. The IC90 ([4]; read-out: MLN8237 IC90, A2780, TAK-733 16 nM) was 28 nM, the IC90 ([4]; read-out: MLN8237 IC90, A2780, TAK-733 80 nM) was 46 nM and the IC50 ([5]; read-out: MLN8237 IC50, A375, TAK-733 0.0 nM) was 59 nM. The IC50 ([5]; read-out: MLN8237 IC50, A375, TAK-733 0.0001 nM) was 73 nM, the IC50 ([5]; read-out: MLN8237 IC50, A375, TAK-733 0.001 nM) was 63 nM and the IC50 ([5]; read-out: MLN8237 IC50, A375, TAK-733 0.01 nM) was 58 nM. It also gave an IC50 ([5]; read-out: MLN8237 IC50, A375, TAK-733 0.1 nM) of 62 nM, an IC50 ([5]; read-out: MLN8237 IC50, A375, TAK-733 1 nM) of 65 nM and an IC90 ([5]; read-out: MLN8237 IC90, A375, TAK-733 0.0 nM) of 530 nM. It also gave an IC90 ([5]; read-out: MLN8237 IC90, A375, TAK-733 0.0001 nM) of 554 nM, an IC90 ([5]; read-out: MLN8237 IC90, A375, TAK-733 0.001 nM) of 408 nM and an IC90 ([5]; read-out: MLN8237 IC90, A375, TAK-733 0.01 nM) of 882 nM. The IC90 ([5]; read-out: MLN8237 IC90, A375, TAK-733 0.1 nM) was 325 nM, the IC90 ([5]; read-out: MLN8237 IC90, A375, TAK-733 1 nM) was over 5000 nM and the “Percentage of cells” value ([6]; A375, 24 Hr, DMSO 0.9) was 16%. The “Percentage of cells” value ([6]; A375, 48 Hr, DMSO 1.4) was 18.6%, the IC50 ([7]; read-out: MLN8237 IC50, PC-3, TAK-733 0.0 nM) was 134 nM and the IC50 ([7]; read-out: MLN8237 IC50, PC-3, TAK-733 16 nM) was 84 nM. The IC50 ([7]; read-out: MLN8237 IC50, PC-3, TAK-733 80 nM) was 93 nM, the IC50 ([7]; read-out: MLN8237 IC50, PC-3, TAK-733 400 nM) was 100 nM and the IC50 ([7]; read-out: MLN8237 IC50, PC-3, TAK-733 2000 nM) was 74 nM. For the same compound, the IC90 ([7]; read-out: MLN8237 IC90, PC-3, TAK-733 0.0 nM) was over 5000 nM, the IC90 ([7]; read-out: MLN8237 IC90, PC-3, TAK-733 16 nM) was over 5000 nM and the IC90 ([7]; read-out: MLN8237 IC90, PC-3, TAK-733 80 nM) was 1060 nM. The IC90 ([7]; read-out: MLN8237 IC90, PC-3, TAK-733 400 nM) was 890 nM, the IC90 ([7]; read-out: MLN8237 IC90, PC-3, TAK-733 2000 nM) was 569 nM and the TGI ([8]; MLN8237 20 mg/kg PO QD for 21 days, p>0.05 vs control) was 43.4%. For the same compound, the “TFS (tumor-free survivors)” value ([8]; MLN8237 20 mg/kg PO QD for 21 days) was 2, the “CR (complete tumor response)” value ([8]; MLN8237 20 mg/kg PO QD for 21 days, mice of 8) was 2 of 8 and the TGI ([8]; MLN8237 30 mg/kg PO for 21 days, p<0.05 vs vehicle) was 73.3%. For the same compound, the “TFS (tumor-free survivors)” value ([8]; MLN8237 30 mg/kg PO for 21 days) was 2, the “CR (complete tumor response)” value [8, 12] was 4 of 8 and the “PR (partial tumor response)” value [8, 12] was 4 of 8. It also gave an IC50 ([9]; read-out: MLN8237 IC50, SKMEL-2, TAK-733 0.0 nM) of 67 nM, an IC50 ([9]; read-out: MLN8237 IC50, SKMEL-2, TAK-733 0.01 nM) of 66 nM and an IC50 ([9]; read-out: MLN8237 IC50, SKMEL-2, TAK-733 0.1 nM) of 54 nM. For the same compound, the IC50 ([9]; read-out: MLN8237 IC50, SKMEL-2, TAK-733 1 nM) was 48 nM, the IC50 ([9]; read-out: MLN8237 IC50, SKMEL-2, TAK-733 10 nM) was 16 nM and the IC90 ([9]; read-out: MLN8237 IC90, SKMEL-2, TAK-733 0.0 nM) was over 5000 nM. It also gave an IC90 ([9]; read-out: MLN8237 IC90, SKMEL-2, TAK-733 0.01 nM) of over 5000 nM, an IC90 ([9]; read-out: MLN8237 IC90, SKMEL-2, TAK-733 0.1 nM) of over 5000 nM and an IC90 ([9]; read-out: MLN8237 IC90, SKMEL-2, TAK-733 1 nM) of over 5000 nM. The IC90 ([9]; read-out: MLN8237 IC90, SKMEL-2, TAK-733 10 nM) was 309 nM, the “Percentage of cells” value ([10]; A2780, 24 Hr, DMSO 1.7) was 9.6% and the “Percentage of cells” value ([10]; A2780, 48 Hr, DMSO 2.2) was 13%. For the same compound, the “Percentage of cells” value ([11]; SKMEL-2, 24 Hr, DMSO 3.1) was 14.5% and the “Percentage of cells” value ([11]; SKMEL-2, 48 Hr, DMSO 2.7) was 36.4%.
